Experimental data from patent US9995734B2, “Human T cell line assay for evaluating the immunologic identity of glatiramer acetate preparations” (Mylan Inc., priority 2013, dated 2018).
Marks after values point to notes of the source that are not given here.

Columns and labels:
Donor 3 COP T-Cell Lines = assay: ATP proliferation assay (CellTiter Glo), Donor 3 COP T-cell lines, incl. reactivity to non-canonical GA peptides; assay type: cell-based, human; conditions: for Reactivity (proliferation), Mean: Day 54 of culture; for Proliferation (luminescent ATP assay), Mean: Day 77 of culture, 0 μg/mL 1563
Donor 3 GMA T-Cell Lines = assay: ATP proliferation assay (CellTiter Glo), Donor 3 GMA T-cell lines, incl. reactivity to non-canonical GA peptides; assay type: cell-based, human; conditions: for Mean, ATP proliferation assay: Day 40

glatiramer acetate [COP]
Mean, ATP proliferation assay (Donor 3 COP T-Cell Lines; T-cell line 165-D11C, 1 μg/mL, Day 46, after 3 days): 486 RLU | Reactivity (proliferation), Mean (Donor 3 COP T-Cell Lines; T-cell line 165-D11C, 3 μg/mL antigen, No Antigen 4571): 6618 RLU | Mean, ATP proliferation assay (Donor 3 COP T-Cell Lines; T-cell line 165-D11C, 3 μg/mL, Day 46, after 3 days): 19410 RLU | Reactivity (proliferation), Mean (Donor 3 COP T-Cell Lines; T-cell line 165-D11C, 10 μg/mL antigen, No Antigen 4571): 15652 RLU | Mean, ATP proliferation assay (Donor 3 COP T-Cell Lines; T-cell line 165-D11C, 10 μg/mL, Day 46, after 3 days): 42017 RLU | Reactivity (proliferation), Mean (Donor 3 COP T-Cell Lines; T-cell line 165-D11C, 100 μg/mL antigen, No Antigen 4571): 12958 RLU | Mean, ATP proliferation assay (Donor 3 COP T-Cell Lines; T-cell line 165-D11C, Day 32, 10 μg/mL): 525 RLU | Reactivity (proliferation), Mean (Donor 3 COP T-Cell Lines; T-cell line 165-E3C, 1 μg/mL antigen, No Antigen 2797): 2592 RLU | Mean, ATP proliferation assay (Donor 3 COP T-Cell Lines; T-cell line 165-E3C, 1 μg/mL, Day 46, after 3 days): 364 RLU | Reactivity (proliferation), Mean (Donor 3 COP T-Cell Lines; T-cell line 165-E3C, 3 μg/mL antigen, No Antigen 2797): 14394 RLU | Mean, ATP proliferation assay (Donor 3 COP T-Cell Lines; T-cell line 165-E3C, 3 μg/mL, Day 46, after 3 days): 23785 RLU | Reactivity (proliferation), Mean (Donor 3 COP T-Cell Lines; T-cell line 165-E3C, 10 μg/mL antigen, No Antigen 2797): 39495 RLU | Mean, ATP proliferation assay (Donor 3 COP T-Cell Lines; T-cell line 165-E3C, 10 μg/mL, Day 46, after 3 days): 51822 RLU | Reactivity (proliferation), Mean (Donor 3 COP T-Cell Lines; T-cell line 165-E3C, 100 μg/mL antigen, No Antigen 2797): 20538 RLU | Mean, ATP proliferation assay (Donor 3 COP T-Cell Lines; T-cell line 165-E3C, Day 32, 10 μg/mL): 3778 RLU | Reactivity (proliferation), Mean (Donor 3 COP T-Cell Lines; T-cell line 165-F3C, 1 μg/mL antigen, No Antigen 3150): 7777 RLU | Proliferation (luminescent ATP assay), Mean (Donor 3 COP T-Cell Lines; T-cell line 165-F3C, 1 μg/mL antigen): 5027 | Reactivity (proliferation), Mean (Donor 3 COP T-Cell Lines; T-cell line 165-F3C, 3 μg/mL antigen, No Antigen 3150): 36331 RLU | Proliferation (luminescent ATP assay), Mean (Donor 3 COP T-Cell Lines; T-cell line 165-F3C, 3 μg/mL antigen): 32906 | Mean, ATP proliferation assay (Donor 3 COP T-Cell Lines; T-cell line 165-F3C, 3 μg/mL, Day 46, after 3 days): 75407 RLU | Reactivity (proliferation), Mean (Donor 3 COP T-Cell Lines; T-cell line 165-F3C, 10 μg/mL antigen, No Antigen 3150): 44047 RLU | Proliferation (luminescent ATP assay), Mean (Donor 3 COP T-Cell Lines; T-cell line 165-F3C, 10 μg/mL antigen): 62888 | Mean, ATP proliferation assay (Donor 3 COP T-Cell Lines; T-cell line 165-F3C, 10 μg/mL, Day 46, after 3 days): 85442 RLU | Reactivity (proliferation), Mean (Donor 3 COP T-Cell Lines; T-cell line 165-F3C, 100 μg/mL antigen, No Antigen 3150): 9932 RLU | Mean, ATP proliferation assay (Donor 3 COP T-Cell Lines; T-cell line 165-F3C, Day 32, 10 μg/mL): 1141 RLU | Reactivity (proliferation), Mean (Donor 3 COP T-Cell Lines; T-cell line 165-F6C, 1 μg/mL antigen, No Antigen 2189): 13418 RLU | Reactivity (proliferation), Mean (Donor 3 COP T-Cell Lines; T-cell line 165-F6C, 3 μg/mL antigen, No Antigen 2189): 38973 RLU | Mean, ATP proliferation assay (Donor 3 COP T-Cell Lines; T-cell line 165-F6C, 3 μg/mL, Day 46, after 3 days): 31382 RLU | Reactivity (proliferation), Mean (Donor 3 COP T-Cell Lines; T-cell line 165-F6C, 10 μg/mL antigen, No Antigen 2189): 39560 RLU | Mean, ATP proliferation assay (Donor 3 COP T-Cell Lines; T-cell line 165-F6C, 10 μg/mL, Day 46, after 3 days): 34071 RLU | Reactivity (proliferation), Mean (Donor 3 COP T-Cell Lines; T-cell line 165-F6C, 100 μg/mL antigen, No Antigen 2189): 4332 RLU | Mean, ATP proliferation assay (Donor 3 COP T-Cell Lines; T-cell line 165-F6C, Day 32, 10 μg/mL): 1484 RLU | response in proliferation assay (Donor 3 COP T-Cell Lines; all seven Donor 3 COP T-cell lines tested, Day 54): responded well | reactivity in confirmatory ATP proliferation assay (Donor 3 COP T-Cell Lines; six Donor 3 COP lines, Day 32, 10 μg/mL (Table 23)): showed reactivity | response in proliferation assay (Donor 3 GMA T-Cell Lines; 165-B5G, 165-D8G, 165-E7G, 165-F5G, Day 56, 0, 1, 5, 10, 100 μg/mL, GMA and COP responses comparable): responded well | Proliferation (luminescent ATP assay), Mean (Donor 3 GMA T-Cell Lines; T-cell line 165-05G, 1 μg/mL antigen, Day 50 of culturing, No Antigen Value 2149): 6791 RLU | Proliferation (luminescent ATP assay), Mean (Donor 3 GMA T-Cell Lines; T-cell line 165-05G, 3 μg/mL antigen, Day 50 of culturing, No Antigen Value 2149): 42584 RLU | Proliferation (luminescent ATP assay), Mean (Donor 3 GMA T-Cell Lines; T-cell line 165-05G, 10 μg/mL antigen, Day 50 of culturing, No Antigen Value 2149): 56893 RLU | Proliferation (luminescent ATP assay), Mean (Donor 3 GMA T-Cell Lines; T-cell line 165-05G, 30 μg/mL antigen, Day 50 of culturing, No Antigen Value 2149): 55001 RLU | Mean, ATP proliferation assay (Donor 3 GMA T-Cell Lines; T-cell line 165-B2G, 1 μg/mL): 3779 | Mean, ATP proliferation assay (Donor 3 GMA T-Cell Lines; T-cell line 165-B2G, 3 μg/mL): 11983 | Mean, ATP proliferation assay (Donor 3 GMA T-Cell Lines; T-cell line 165-B2G, line COP 10 μg/mL, footnote: well contained 3 μg/mL COP): 10980* | Proliferation (luminescent ATP assay), Mean (Donor 3 GMA T-Cell Lines; T-cell line 165-B5G, 1 μg/mL antigen, Day 81 of culturing, No Antigen Value 2432): 6275 RLU | Mean, ATP proliferation assay (Donor 3 GMA T-Cell Lines; T-cell line 165-B5G, 1 μg/mL): 3672 | Proliferation (luminescent ATP assay), Mean (Donor 3 GMA T-Cell Lines; T-cell line 165-B5G, 3 μg/mL antigen, Day 81 of culturing, No Antigen Value 2432): 7499 RLU | Mean, ATP proliferation assay (Donor 3 GMA T-Cell Lines; T-cell line 165-B5G, 3 μg/mL): 3673 | Proliferation (luminescent ATP assay), Mean (Donor 3 GMA T-Cell Lines; T-cell line 165-B5G, 10 μg/mL antigen, Day 81 of culturing, No Antigen Value 2432): 10914 RLU | Mean, ATP proliferation assay (Donor 3 GMA T-Cell Lines; T-cell line 165-B5G, 10 μg/mL): 14282 | Proliferation (luminescent ATP assay), Mean (Donor 3 GMA T-Cell Lines; T-cell line 165-B5G, 30 μg/mL antigen, Day 81 of culturing, No Antigen Value 2432): 13974 RLU | Mean, ATP proliferation assay (Donor 3 GMA T-Cell Lines; T-cell line 165-C4G, 1 μg/mL): 3143
